The results in this text go back to paper PMC4919066 (PLoS Pathogens, 2016).

One assay deals with T1, RPS14-MDM2 (Homo sapiens, UniProt P62263).
T1 construct: endogenous in cells; host or cells: HFFs (ATCC CRL-2088), infected with HCMV Towne, MG132-treated
Description: Co-immunoprecipitation RPS14-MDM2. The conditions noted are these: emetine 75 nM, infected high-density cells, 24 hpi, MG132. It is filed as cell-based. As to the method: (§1) Non-infected, infected or emetine-treated HFFs were treated with MG132 (10 μM) for 12h. Cells were harvested after 24 hpi and lysed with IP buffer containing 150 mM NaCl, 50mM Tris pH 7.5, 2 mM EDTA, 0.5% TritonX-100 and 0.5% NP-40-40. 1 mg of lysate was precleared with bead slurry for 30 min. The precleared lysates were incubated with anti-MDM2 (2 μg) antibody overnight. The antibody complexes were isolated using protein A/G beads (Santa Cruz), washed three times with 50% IP buffer. The immunoprecipitate-protein A/G beads were boiled in SDS sample buffer, and the supernatant was analyzed on SDS-PAGE gels after immunoblotting as described previously. 1% of the cell lysate used for IP was loaded on gels as ‘Input’. Confirmatory reverse IPs were performed as described in each experiment. Isotype control antibodies included: rabbit IgG polyclonal, mouse IgG2a kappa and mouse IgG2b kappa monoclonal (Abcam). Mouse monoclonal RPS19 antibody (Abcam) served as an additional negative control for the IPs. Densitometry analysis was performed to determine relative ratio of immunoprecipitated protein to its input level.

The next assay deals with HCMV Towne. Description: Add-on and removal studies, plaque titration. It is filed as cell-based, Human Cytomegalovirus. The conditions noted are these: supernatants at 72 hpi. How it is done: For time-of-removal studies, medium containing the compounds was removed at 0, 6, 12, 24, 36 and 48 hpi, cells were washed three times with PBS, and drug-free medium was added. Culture supernatants were collected at 72 hpi and titration of infectious virus was performed after 14 days by plaque assay.

Assay [1] concerns pp28-luciferase HCMV Towne. Description: Second cycle infection luciferase assay. The assay is classed as cell-based, Human Cytomegalovirus. The conditions noted are these: emetine 75 nM. How it is done: (§2) Human Foreskin Fibroblasts (HFFs) passage 12–16 (ATCC, CRL-2088) and mouse embryonic fibroblasts (MEFs) passage 9–14 (ATCC, CRL-1658) were grown in Dulbecco's Modified Eagle Medium (DMEM) containing 10% fetal bovine serum (FBS) (Gibco, Carlsbad, CA) in a 5% CO2 incubator at 37°C. Infection with HCMV or HSV was performed in HFFs, and infection with mouse CMV was performed in MEFs. For HCMV, cells were seeded in either a 96-well plate or 100 mm culture plates (Corning Costar, Sigma Aldrich) at 0.5 or 2 million cells /plate. Following 90 minute adsorption, media was removed and cells were washed with PBS. Media containing 4% FBS and compounds were added to each well. Infected treated HFFs were collected at 72 hpi and lysates were assayed for luciferase activity using a luciferase assay kit (Promega, Madison, WI) on GloMax-Multi+ Detection System (Promega). In second cycle assays, supernatants were collected from all conditions of the first cycle at 96 hpi and used for infection of fresh HFFs in 96-well plates. Luciferase activity was measured 72 h following second cycle infection. For HSV1-KOS/Dlux/oriS, a luciferase assay was performed at 24 hpi. […] After incubation at 37°C for 10 days (for HCMV), 3 days for MCMV or 2 days (for HSV), the overlay was removed and plaques were counted after crystal violet staining.

Assay [2] concerns HCMV. Description: Anti-HCMV activity in RPS14 knockdown cells (sh-RPS14). It is filed as cell-based, Human Cytomegalovirus. The conditions noted are these: emetine 75 nM, luciferase, plaque reduction, viral proteins at 72 hpi. How it is done: as §2, with “In second cycle assays, supernatants were collected from all conditions of the first cycle at 96 hpi and used for infection of fresh HFFs in 96-well plates.” left out, “infection.” for “infection. For HSV1-KOS/Dlux/oriS, a luciferase assay was performed at 24 hpi.”
Human TRC lentiviral shRNA constructs (Sigma-Aldrich) were used for RPS14 knockdown (KD) in HFFs. […] Control HFFs and RPS14 KD HFFs were counted and equal number of cells was plated prior to infection or treatment.

Assay [3] has as its system protein synthesis in HFFs. Description: Translation inhibition assay. It is filed as cell-based, human. The conditions noted are these: nM concentrations, non-infected or HCMV-infected cells, 24 h. How it is done:
[…] HFFs were seeded in a 96-well black, clear bottom tissue culture plate. […] A protein synthesis assay kit (Cayman Chemical, Ann Arbor, Michigan) was used according to manufacturer's protocol to quantify emetine-mediated translation inhibition using a fluorescence based assay.

A further assay concerns MDM2-p53. Description: Co-immunoprecipitation MDM2-p53. The assay is classed as cell-based, human. The conditions noted are these: emetine 75 nM, infected high-density cells, 24 hpi, MG132. As to the method: as §1
The subject of assay [4] is HCMV. Description: Virus entry, pp65 immunofluorescence assay. The assay is classed as cell-based, Human Cytomegalovirus. The conditions noted are these: emetine 75 nM, GCV 10 μM, CpG 2006 10 μM, added 24 h prior to infection.

Each structure is given as a SMILES string. Counter-ions that a name gives are not always drawn.

Regarding `CC[C@H]1CN2CCc3cc(OC)c(OC)cc3[C@@H]2C[C@@H]1C[C@H]1NCCc2cc(OC)c(OC)cc21` [emetine, emetine dihydrochloride hydrate], at RPS14-MDM2, the “interaction between RPS14 and MDM2” value is “strongly induced the interaction between RPS14 and MDM2”. Moreover, the “anti-HCMV activity when added after infection (add-on)” value in the assay with HCMV Towne (addition after 12 h) is recorded as “loss of activity against HCMV”. The “time compound is required to fully inhibit HCMV (removal assay)” value with HCMV Towne (plaque assay) is “at least 24 h”. In addition, the “increase in pp28-luciferase activity, second cycle infection, compared to infected control” value in assay [1] (0.5 million cells/plate) is reported as 1.5 fold. The “pp28-luciferase activity, second cycle infection, compared to infected control” value in assay [1] (1 and 2 million cells/plate) is on record as “near complete inhibition”. Moreover, the “HCMV inhibition in high-density sh-RPS14 cells” value in the assay with HCMV [2] is reported as “unable to inhibit HCMV”. Also, in assay [3], the “inhibition of protein synthesis” value is reported as “did not inhibit protein synthesis”. In the assay on MDM2-p53, the “interaction between MDM2 and p53” value is reported as “disrupted”. The “inhibition of viral entry” value in the assay with HCMV [4] is “neither emetine nor GCV inhibited viral entry”.
